Assay type in all cases: in vivo
Design in all cases: key: A: No diseased area; B: Diseased area of less than 25%; C: Diseased area of at least 25% but less than 50%; Diseased area of at least 50%

The test system of assay [1] is Erysiphe graminis. Description: Test for Preventive Effect on Wheat Powdery Mildew. The note with it: wheat seedlings (Norin-61-go), 500 ppm active ingredient, 10 ml per pot, 10 days after inoculation. The protocol: [table] Test for Preventive Effect on Wheat Powdery Mildew 9 wheat seeds (variety: […] Then, the seedlings were inoculated with […] graminis spores in suspension and placed in a greenhouse at 25 to 30° C. 10 days after the inoculation, the total diseases area of the first leaves in each pot was observed and evaluated on the basis of the standards shown in Table 59. The results are shown in Tables 67 to 71.

Assay [2] relates to Venturia inaequalis. Description: Test for Preventive Effect on Apple Scab. As to conditions: 14 days after inoculation; for Evaluation (diseased area of the upper two inoculated leaves): apple seedlings (Kogyoku), 500 ppm active ingredient, 20 ml per pot; for Evaluation (diseased areas of the upper two of the inoculated leaves): apple seedlings, wettable powder at 500 ppm active ingredient, preventive. The protocol: [table] Test for Preventive Effect on Apple Scab 5 apple seeds (variety: Kogyoku) were sown in each 9 cm×9 cm polyvinyl chloride pot and grown in a greenhouse for 20 days. […] Then, the seedlings were inoculated with Venturia inaequalis spores in suspension by spraying and immediately placed in a moist chamber at 22° C. for 48 hours. Thereafter, the seedlings were placed in a greenhouse for development of the disease. 14 days after the inoculation, the diseased areas of the upper two of the inoculated leaves were observed and evaluated on the basis of the standards shown in Table 59.

Assay [3] relates to Pseudoperonospora cubensis. Description: Test for Preventive Effect on Cucumber Downy Mildew. As to conditions: cucumber seedlings, wettable powder at 500 ppm active ingredient, 7 days after inoculation. As for the experimental part:
Test for Preventive Effect on Cucumber Downy Mildew 9 cucumber seeds (variety: Sagami-hanpaku) were sown in each 9 cmx9 cm polyvinyl chloride pot and grown in a greenhouse for 7 days. […] Then, the seedlings were inoculated with Pseudoperonospora cubensis zoosporangia in suspension by spraying and immediately placed in a moist chamber at 22° C. for 24 hours. Thereafter, the seedlings were placed in a greenhouse. 7 days after the inoculation, the total diseased area in each pot was observed and evaluated on the basis of the standards shown in Table 59. [table]

The structures appear in SMILES notation.

As to `COC(=O)NC(C)c1cccc(-c2cccc(C(F)(F)F)c2)c1` (racemic) [3-16], in assay [1], the “Evaluation (total diseased area of the first leaves in each pot)” value is given as “A”. For the same molecule, the “Evaluation (diseased area of the upper two inoculated leaves)” value in assay [2] is listed as “A”. Besides, the “Evaluation (total diseased area in each pot)” value in assay [3] is recorded as “A”.

`COC(=O)NCc1cccc(-c2ccc(F)cc2)c1` [1-7]: in assay [1], the “Evaluation (total diseased area of the first leaves in each pot)” value is “A”. Also, in assay [2], the “Evaluation (diseased areas of the upper two of the inoculated leaves)” value is “A”. Further, in assay [3], the “Evaluation (total diseased area in each pot)” value is on record as “B (Diseased area of less than 25%)”.

In the case of `COC(=O)NCc1cccc(-c2cccc(Cl)c2)c1` [1-3], the “Evaluation (total diseased area of the first leaves in each pot)” value in assay [1] was “A”. The “Evaluation (diseased areas of the upper two of the inoculated leaves)” value in assay [2] is given as “A”. Moreover, the “Evaluation (total diseased area in each pot)” value in assay [3] was “A”.

In the case of `COC(=O)NCc1cc(-c2cccc(C)c2)ccc1F` [2-109], the “Evaluation (total diseased area of the first leaves in each pot)” value in assay [1] was “A”. Also, the “Evaluation (diseased areas of the upper two of the inoculated leaves)” value in assay [2] is listed as “A”. Also, the “Evaluation (total diseased area in each pot)” value in assay [3] is “A”.

As to `COC(=O)NCc1cccc(-c2ccc(C)c(C)c2)c1` [1-125], the “Evaluation (total diseased area of the first leaves in each pot)” value in assay [1] is given as “A”. In addition, in assay [2], the “Evaluation (diseased areas of the upper two of the inoculated leaves)” value is given as “A”. In addition, the “Evaluation (total diseased area in each pot)” value in assay [3] is “A”.

Regarding `COC(=O)NC(C)c1cccc(-c2ccc(F)c(Cl)c2)c1` (racemic) [3-21], in assay [1], the “Evaluation (total diseased area of the first leaves in each pot)” value is “B (Diseased area of less than 25%)”. The “Evaluation (diseased area of the upper two inoculated leaves)” value in assay [2] was “A”. Further, the “Evaluation (total diseased area in each pot)” value in assay [3] is reported as “A”.

Take `CNC(=O)NCc1cccc(-c2ccccc2)c1` [1-253]: the “Evaluation (total diseased area in each pot)” value in assay [3] is listed as “B (Diseased area of less than 25%)”.

Take `COC(=O)NCc1cc(-c2ccccc2)ccc1F` [2-102]: in assay [1], the “Evaluation (total diseased area of the first leaves in each pot)” value is listed as “A”. Further, the “Evaluation (diseased areas of the upper two of the inoculated leaves)” value in assay [2] is reported as “A”. Besides, in assay [3], the “Evaluation (total diseased area in each pot)” value is listed as “A”.

As for `COC(=O)NC(C)c1cccc(-c2cccc(C)c2)c1` (racemic) [3-6], the “Evaluation (total diseased area of the first leaves in each pot)” value in assay [1] is listed as “A”. Further, the “Evaluation (diseased area of the upper two inoculated leaves)” value in assay [2] is on record as “A”. In addition, in assay [3], the “Evaluation (total diseased area in each pot)” value is given as “A”.

On to `COC(=O)NCc1cc(-c2ccc(Cl)cc2)ccc1F` [2-107], for which the “Evaluation (total diseased area of the first leaves in each pot)” value in assay [1] was “A”. For the same molecule, the “Evaluation (diseased areas of the upper two of the inoculated leaves)” value in assay [2] is reported as “A”. Also, the “Evaluation (total diseased area in each pot)” value in assay [3] is recorded as “A”.

Turning to `COC(=O)NCc1cc(-c2cccc(C)c2)ccc1OC` [2-333], the “Evaluation (total diseased area of the first leaves in each pot)” value in assay [1] was “B (Diseased area of less than 25%)”. Also, the “Evaluation (diseased area of the upper two inoculated leaves)” value in assay [2] is reported as “A”. Besides, the “Evaluation (total diseased area in each pot)” value in assay [3] is “A”.

Regarding `COC(=O)NCc1cc(C)cc(-c2cccc(C(F)(F)F)c2)c1` [2-98], the “Evaluation (total diseased area of the first leaves in each pot)” value in assay [1] is listed as “A”. In addition, the “Evaluation (diseased areas of the upper two of the inoculated leaves)” value in assay [2] is “A”. The “Evaluation (total diseased area in each pot)” value in assay [3] is on record as “B (Diseased area of less than 25%)”.

In the case of `COC(=O)NCc1cccc(-c2ccc(Cl)c(Cl)c2)c1` [1-118, Methyl N-[3-(3,4-dichlorophenyl)benzyl]carbamate], in assay [1], the “Evaluation (total diseased area of the first leaves in each pot)” value is given as “A”. Further, the “Evaluation (diseased areas of the upper two of the inoculated leaves)” value in assay [2] is given as “A”. Further, the “Evaluation (total diseased area in each pot)” value in assay [3] was “B (Diseased area of less than 25%)”.

For the molecule `COC(=O)NCc1cccc(-c2cccc([N+](=O)[O-])c2)c1` [1-103], the “Evaluation (diseased areas of the upper two of the inoculated leaves)” value in assay [2] is “A”. In addition, in assay [3], the “Evaluation (total diseased area in each pot)” value is “B (Diseased area of less than 25%)”.

Regarding `COC(=O)NCc1cc(C)cc(-c2ccccc2)c1` [2-91], in assay [1], the “Evaluation (total diseased area of the first leaves in each pot)” value is on record as “A”. Further, in assay [2], the “Evaluation (diseased areas of the upper two of the inoculated leaves)” value is listed as “A”. Further, the “Evaluation (total diseased area in each pot)” value in assay [3] is “B (Diseased area of less than 25%)”.

For `COC(=O)NCc1cc(-c2ccc(C)cc2)ccc1F` [2-110], the “Evaluation (total diseased area of the first leaves in each pot)” value in assay [1] is reported as “B (Diseased area of less than 25%)”. In addition, the “Evaluation (diseased areas of the upper two of the inoculated leaves)” value in assay [2] is “A”. The “Evaluation (total diseased area in each pot)” value in assay [3] was “A”.

For `COC(=O)NCc1cccc(-c2cc(Cl)cc(Cl)c2)c1` [1-119], the “Evaluation (total diseased area of the first leaves in each pot)” value in assay [1] was “A”. Also, the “Evaluation (diseased areas of the upper two of the inoculated leaves)” value in assay [2] was “A”. For the same molecule, in assay [3], the “Evaluation (total diseased area in each pot)” value is “B (Diseased area of less than 25%)”.

With `COC(=O)NCc1cc(-c2cccc(C(C)C)c2)ccc1F` [2-113], the “Evaluation (total diseased area of the first leaves in each pot)” value in assay [1] is “A”. For the same molecule, the “Evaluation (diseased areas of the upper two of the inoculated leaves)” value in assay [2] was “A”. In assay [3], the “Evaluation (total diseased area in each pot)” value is given as “B (Diseased area of less than 25%)”.

Consider `COC(=O)NCc1cc(-c2cccc(Cl)c2)ccc1F` [2-106], for which the “Evaluation (total diseased area of the first leaves in each pot)” value in assay [1] is on record as “A”. For the same molecule, the “Evaluation (diseased areas of the upper two of the inoculated leaves)” value in assay [2] is “A”. For the same molecule, the “Evaluation (total diseased area in each pot)” value in assay [3] is “A”.

Regarding `COC(=O)N(Cc1cccc(-c2cccc(C)c2)c1)OC` [1-266], in assay [1], the “Evaluation (total diseased area of the first leaves in each pot)” value was “A”. In assay [2], the “Evaluation (diseased areas of the upper two of the inoculated leaves)” value is “A”. Also, the “Evaluation (total diseased area in each pot)” value in assay [3] is “B (Diseased area of less than 25%)”.

In the case of `COC(=O)NC(C)c1cccc(-c2ccccc2)c1` (racemic) [3-1], the “Evaluation (total diseased area of the first leaves in each pot)” value in assay [1] is given as “B (Diseased area of less than 25%)”. For the same molecule, the “Evaluation (diseased area of the upper two inoculated leaves)” value in assay [2] was “A”. Also, the “Evaluation (total diseased area in each pot)” value in assay [3] is reported as “A”.

As for `COC(=O)NCc1cccc(-c2cccc(C(F)(F)F)c2)c1` [1-34], the “Evaluation (total diseased area of the first leaves in each pot)” value in assay [1] is listed as “A”. Besides, in assay [2], the “Evaluation (diseased areas of the upper two of the inoculated leaves)” value is recorded as “A”. In addition, the “Evaluation (total diseased area in each pot)” value in assay [3] is “A”.

As for `COC(=O)NCc1cc(-c2ccc(C(C)C)cc2)ccc1F` [2-114], the “Evaluation (total diseased area of the first leaves in each pot)” value in assay [1] was “A”. In addition, in assay [2], the “Evaluation (diseased areas of the upper two of the inoculated leaves)” value is “A”.

As for `COC(=O)NCc1cccc(-c2ccc(OC(F)(F)F)cc2)c1` [1-72], the “Evaluation (total diseased area of the first leaves in each pot)” value in assay [1] is given as “A”. Besides, the “Evaluation (diseased areas of the upper two of the inoculated leaves)” value in assay [2] is given as “A”.

With `COC(=O)NCc1cc(-c2ccc(F)c(F)c2)ccc1F` [2-412], the “Evaluation (total diseased area of the first leaves in each pot)” value in assay [1] is “A”. For the same molecule, the “Evaluation (diseased area of the upper two inoculated leaves)” value in assay [2] is reported as “A”.

With `COC(=O)NCc1cc(-c2cccc(C(F)(F)F)c2)ccc1OC(F)F` [2-365], the “Evaluation (total diseased area of the first leaves in each pot)” value in assay [1] is on record as “B (Diseased area of less than 25%)”. Also, the “Evaluation (diseased area of the upper two inoculated leaves)” value in assay [2] is recorded as “A”.

With `COC(=O)NCc1cccc(-c2ccc3ccccc3c2C)c1` [6-1], the “Evaluation (total diseased area of the first leaves in each pot)” value in assay [1] is “B (Diseased area of less than 25%)”. In assay [2], the “Evaluation (diseased area of the upper two inoculated leaves)” value was “A”.

Take `COCN(Cc1cccc(-c2ccccc2C)c1)C(=O)OC` [1-193]: in assay [1], the “Evaluation (total diseased area of the first leaves in each pot)” value is given as “B (Diseased area of less than 25%)”. The “Evaluation (diseased areas of the upper two of the inoculated leaves)” value in assay [2] is listed as “A”.

As to `CCc1cccc(-c2cccc(CNC(=O)OC)c2)c1` [1-13], the “Evaluation (total diseased area of the first leaves in each pot)” value in assay [1] is “A”. In assay [2], the “Evaluation (diseased areas of the upper two of the inoculated leaves)” value is “A”.

For `COC(=O)NC(C)c1cc(-c2ccccc2)ccc1F` (racemic) [3-26], in assay [1], the “Evaluation (total diseased area of the first leaves in each pot)” value is recorded as “B (Diseased area of less than 25%)”. Moreover, in assay [2], the “Evaluation (diseased area of the upper two inoculated leaves)” value is on record as “A”.

The record behind these values is US6620961B1, “Biarylalkylenecarbamic acid derivatives and bacteriocides for agricultural and horticultural use” (Kumiai Chemical Industry Co., Ltd., priority 1997, dated 2003).
